The source of these data is US9944668B2, “Manganese-based magnetic resonance contrast agents” (The General Hospital Corporation, priority 2013, dated 2018).

What all share (assay type): physicochemical
The nature of data set [1]: T1 relaxivity (r1) measurement at 1.4 T, 37° C., TRIS buffer pH 7.4. To be noted: for r1 (relaxivity): pH 7.4, 37° C., 1.4 Tesla, TRIS buffer. On the procedure: (§1) Liquid chromatography-electrospray mass spectrometry (LC-MS) was performed using an Agilent 1100 Series apparatus with an LC/MSD trap and Daly conversion dynode detector with UV detection at 220, 254 and 280 nm. The methods used on this system are as follows: (a) Luna C18 column (100×2 mm); eluent A: H2O/0.1% formic acid, B: MeCN/0.1% formic acid; gradient: 5% B to 95% B over 9 minutes; flow rate 0.8 mL/min (used for characterization of organic compounds), and (b) Kromasil C18 column (250×4.6 mm); eluent C: 95% MeCN/5% 10 mM ammonium acetate, D: 10 mM ammonium acetate; gradient 5% C to 8% C over 14 minutes; flow rate 0.8 ml/min (used for characterization of manganese complexes). Reversed-phase semipreparative purification was performed on a Rainin Dynamax HPLC system with UV detection at 254 nm using a Polaris C18 column. The method used for purification is as follows: The mobile phase A was 50 mM ammonium acetate buffer, pH 6.5 and mobile phase B was a mixture of 5% 50 mM ammonium acetate buffer, pH 6.5/95% MeCN. Starting from 5% B, the fraction of B increased to 8% over 23 minutes. The column was washed with 100% B for 2 minutes and then ramped to 5% B. The system was re-equilibrated at 5% B for 3 minutes. Relaxivity measurements were performed on a Bruker mq60 Minispec at 1.4 T and 37° C. Manganese concentrations were determined using an Agilent 7500a ICP-MS system. All samples were diluted with 0.1% Triton X-100 in 5% nitric acid containing 20 ppb of Lu (as internal standard). The ratio of Mn (54.94)/Lu(174.97) was used to quantify the manganese concentration. A linear calibration curve ranging from 0.1 ppb to 200 ppb was generated daily for the quantification. UV-Vis spectra were recorded on a SpectraMax M2 spectrophotometer using quartz cuvette with a 1 cm path length. Cyclic voltammetry of Mn^IIHBET, Mn^IIEDTA and Mn^IIIHBET was recorded using a Nuvant EZstat pro potentiostat in TRIS buffer (pH=7.4), containing 0.5M KNO3 as supporting electrolyte, at 100 mVs-1 scan rate. Glassy carbon was used as the working electrode, Ag/AgCl served as the reference electrode and Pt wire was used as the auxiliary electrode. The K4FeCN6/K3FeCN6 couple was used as the internal standard.
T1 was measured with an inversion recovery pulse sequence taking 10 inversion times. Relaxivity was determined from the slope of a plot of 1/T1 vs. concentration of in TRIS buffer, pH=7.4 at 37° C. The concentration of manganese in each stock solution was determined using ICP-MS.

Data set [2] in a line: Cyclic voltammetry of manganese complexes (Mn(III)/Mn(II) redox couple). Particulars: for Half-cell potential: pH 7.4, vs. normal hydrogen electrode (NHE). As for the experimental part: as §1
Data set [3] can be described thus: Kinetics of reduction of Mn^III-HBET by glutathione. To be noted: 37° C., pH 7.4; first-order in both [GSH] and [Mn^III-HBET]. On the procedure:
This series of kinetic experiments were conducted at 37° C. (pH 7.4) to determine the empirical rate law for the reduction of Mn^III-HBET by glutathione. […] This feature was used to monitor the reduction of […] over time. Initial reaction rates were measured at a three different glutathione concentrations (5 mM, 10 mM and 20 mM). Additionally, for each glutathione concentration, the reaction was performed at four different initial concentrations of Mn^III-HBET (0.3 mM, 0.4 mM, 0.5 mM and 0.6 mM). By using a large excess of glutathione in these experiments, we found the reaction behaved pseudo first-order with respect to the […] complex as expressed in equation S1. [Mn^IIIHBET]t=[Mn^IIIHBET]o·e^−k^obs^·t (eq. S1)
Here, the observed rate constant (kobs) is simply the product of the actual rate constant (k) and [GSH], t is time, and the subscripts ‘t’ and ‘o’ refer to the concentration at time ‘t’ or the initial concentration, respectively. […] In this way, the slope of each line is equal to −k·[GSH] and the intercept is In[MnIII-HBET]o. Based on these experiments, we determined that the reaction was first-order in both [GSH] and [Mn^III-HBET] with an overall second-order rate constant of (3.8±0.3)×10^−1M^−1s^−1.

The nature of data set [4]: T1 relaxivity measurement by MR imaging at 4.7 T. Particulars: room temperature, pH 7.4 TRIS buffer. On the procedure:
MR imaging was performed using a Bruker Biospec 4.7 T system. Three samples (˜500 μL) were placed in a homemade sample holder and imaged using a volume coil. Acquisition matrix=64×256 for 0.234×0.312 mm^2 in-plane resolution; slice thickness=5 mm. T1-weighted images were obtained with a fast low angle shot (FLASH) gradient echo sequence: TR/TE/FA=20/5.44/40° with 8 averages. T1 was determined using a 2D rapid acquisition refocused echo (RARE) inversion recovery sequence: TR=3200 ms, TE=9.7 ms. Inversion times (TI): 5, 45, 85, 165, 325, 645, 1285, 1925 and 3205 ms. T1 was obtained from a nonlinear least square fit of the signal intensity (SI(t)) vs. TI curve where T1, SI(0) and a are adjustable parameters, equation S2. SI(t)=SI(0)[1−α,e^TI/T1] (eq. S2)

The nature of data set [5]: Relaxivity (r1) at different field strengths in HEPES buffer. Particulars: 37° C., pH 7.4 HEPES buffer. On the procedure: The relaxivities of the compounds for Formulas (XI) and (XII) were determined at different field strengths at 37° C. in pH 7.4 HEPES buffer. The relaxivity was obtained from the slope of a plot of 1/T1 vs. [Mn] for different Mn concentrations. Since Formula (XI) contains 6 Mn per molecule, the ionic (per Mn) and molecular (per molecule) relaxivities are given below.

With `O=C([O-])CN(CC(=O)[O-])C1CCCCC1N(CC(=O)[O-])Cc1ccccc1[O-].[Mn+2].[Na+].[Na+]` (racemic) [Compound 20, Na2[Mn^IIcycHBET]], the “r1 (relaxivity)” value in data set [1] stood at 3.26 mM⁻¹ s⁻¹.

On to `O=C([O-])CN(CCN(CC(=O)[O-])Cc1ccccc1[O-])CC(=O)[O-].[Mn+2].[Na+].[Na+]` [Compound 4, Na2[Mn^IIHBET]], for which the “r1 (relaxivity)” value in data set [1] worked out at 2.76 mM⁻¹ s⁻¹. In data set [2], this compound returned a Half-cell potential of 379 mV.

Consider `O=C([O-])CN(CCN(CC(=O)[O-])Cc1ccccc1[O-])CC(=O)[O-].[Mn+3].[Na+]` [Compound 5, Na[Mn^IIIHBET]], for which the “r1 (relaxivity)” value in data set [1] was 1.05 mM⁻¹ s⁻¹. The “overall second-order rate constant of reduction by glutathione” value in data set [3] was “(3.8±0.3)×10^−1 M^−1s^−1”. Moreover, in data set [4], the “fold higher relaxivity of reduced form vs oxidized form” value worked out at 3.3 fold.

Take `COc1ccc([O-])c(CN(CCN(CC(=O)[O-])CC(=O)[O-])CC(=O)[O-])c1.[Mn+2].[Na+].[Na+]` [Compound 9, Na2[Mn^IIHBET-OMe]]: the “r1 (relaxivity)” value in data set [1] turned out to be 3.11 mM⁻¹ s⁻¹. The same compound displayed a Half-cell potential in data set [2] of 344 mV.

As to `O=C([O-])CN(CCN(CC(=O)[O-])Cc1cc([N+](=O)[O-])ccc1[O-])CC(=O)[O-].[Mn+2].[Na+].[Na+]` [Compound 13, Na2[Mn^IIHBET-NO2]], the “r1 (relaxivity)” value in data set [1] was 2.28 mM⁻¹ s⁻¹.

For the compound `O=C([O-])CN(CCN(CC(=O)[O-])Cc1cc([N+](=O)[O-])ccc1[O-])CC(=O)[O-].[Mn+3].[Na+]` [Compound 14, Na[Mn^IIIHBET-NO2]], in data set [1], the “r1 (relaxivity)” value was determined as 0.34 mM⁻¹ s⁻¹. In data set [2], this compound returned a Half-cell potential of 476 mV.

For `O=C([O-])CN(CC(=O)[O-])C1CCCCC1N(CC(=O)[O-])Cc1ccccc1[O-].[Mn+3].[Na+]` (stereo not shown) [Compound 21, Na[Mn^IIIcycHBET]], in data set [1], the “r1 (relaxivity)” value amounted to 1.56 mM⁻¹ s⁻¹. In addition, in data set [2], the Half-cell potential worked out at 365 mV.

Turning to `O=C([O-])CN(CC(=O)[O-])C1CCCCC1N(CC(=O)[O-])Cc1cc([N+](=O)[O-])ccc1[O-].[Mn+2].[Na+].[Na+]` (stereo not shown) [Compound 30, Na2[Mn^IIcycHBET-NO2)]], in data set [1], the “r1 (relaxivity)” value was 2.30 mM⁻¹ s⁻¹.

In data set [2], `O=C([O-])CN(CC(=O)[O-])C1CCCCC1N(CC(=O)[O-])Cc1cc([N+](=O)[O-])ccc1[O-].[Mn+3].[Na+]` (stereo not shown) [Compound 31, Na[Mn^IIIcycHBET-NO2]] returned a Half-cell potential of 488 mV.

On to `O=C([O-])CN(CCN(CC(=O)[O-])Cc1ccccc1[O-])Cc1ccccc1[O-].[Mn+3]` [Mn^III-HBED, reference compound], for which the “half-cell potential (Mn^II/Mn^III)” value in data set [2] (TRIS buffer pH 7.4, vs. K4Fe(CN)6/K3Fe(CN)6) turned out to be 0.016 V.

Mn6[N3P3-(TyOH-EDTA)6] [(XI)]: the “Relaxivity r1 (per Mn)” value came out at 9.07 mM⁻¹ s⁻¹ in data set [5] (0.47T); 9.28 mM⁻¹ s⁻¹ in data set [5] (1.4T); 6.54 mM⁻¹ s⁻¹ in data set [5] (4.7T); 4.94 mM⁻¹ s⁻¹ in data set [5] (9.4T); 3.57 mM⁻¹ s⁻¹ in data set [5] (11.7T). The “Relaxivity r1 per molecule” value in data set [5] (0.47T) was 54.4 mM⁻¹ s⁻¹; in data set [5] (1.4T), 55.7 mM⁻¹ s⁻¹; in data set [5] (4.7T) it was 39.2 mM⁻¹ s⁻¹; in data set [5] (9.4T), 29.6 mM⁻¹ s⁻¹; in data set [5] (11.7T), 21.4 mM⁻¹ s⁻¹.

Take Na[Mn(TyOH-EDTA)] [(XII)]: the “Relaxivity r1 (per Mn)” value came out at 3.60 mM⁻¹ s⁻¹ in data set [5] (0.47T), 2.80 mM⁻¹ s⁻¹ in data set [5] (1.4T), 3.65 mM⁻¹ s⁻¹ in data set [5] (9.4T) and 3.05 mM⁻¹ s⁻¹ in data set [5] (11.7T).

On to [Mn(CyP3A)] [(IX)], for which the “Relaxivity r1” value in data set [1] (1.41T, 37° C., pH 7.4 Tris buffer) is 2.50 mM⁻¹ s⁻¹.
